What was measured:
BCL-XLΔC = BCL-XLΔC (Homo sapiens, UniProt Q07817); experiment: High-throughput competitive FP binding screen, FITC-BAD BH3/BCL-XLΔC interaction; conditions: FITC-BAD BH3/BCL-XLΔC interaction pair, competitive FP screen
MCL-1ΔNΔC [1] = experiment: High-throughput competitive FP binding screen, FITC-MCL-1 SAHB/MCL-1ΔNΔC interaction; conditions: selectivity for MCL-1ΔNΔC over BCL-XLΔC targeting (BCL-XL % Bound minus MCL-1 % Bound)
MCL-1ΔNΔC [2] = biological target: MCL-1ΔNΔC (Homo sapiens, UniProt Q07820); experiment: as above; parameters: the C-terminal alpha-helix was deleted from each of these constructs; GST (N, cleaved yes); made in house; conditions: FITC-MCL-1 SAHB/MCL-1ΔNΔC interaction pair, competitive FP screen
MCL-1ΔNΔC (Homo sapiens, UniProt Q07820), sequence (Q07820 172-320 limits assumed, stated change not applied): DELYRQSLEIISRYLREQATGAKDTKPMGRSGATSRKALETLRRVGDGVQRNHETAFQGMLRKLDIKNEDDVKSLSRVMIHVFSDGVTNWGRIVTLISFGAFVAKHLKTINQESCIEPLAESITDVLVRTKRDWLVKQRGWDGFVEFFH

BCL-XLΔC, sequence (Q07817 1-212 limits assumed, stated change not applied): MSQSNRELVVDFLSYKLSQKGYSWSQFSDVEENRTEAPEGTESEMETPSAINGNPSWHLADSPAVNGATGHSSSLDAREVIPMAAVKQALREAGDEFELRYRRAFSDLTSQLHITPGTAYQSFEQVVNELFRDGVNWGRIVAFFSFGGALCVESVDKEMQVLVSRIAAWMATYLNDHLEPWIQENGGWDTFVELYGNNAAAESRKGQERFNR

Row | SMILES | BCL-XL % Bound (BCL-XLΔC) | Spec Values (MCL-1ΔNΔC [1]) | MCL-1% Bound (MCL-1ΔNΔC [2])
1 | CCOc1ccc(S(=O)(=O)NC2C=C(Sc3nc[nH]n3)C(=O)c3ccccc32)cc1 (stereo not drawn) | 103.4% | 101.1 | 2.333%
2 | O=C1C(Sc2nc[nH]n2)=CC(NS(=O)(=O)c2ccc(F)cc2)c2ccccc21 (stereo not drawn) | 96.12% | 91.16 | 4.952%
3 | O=S(=O)(Nc1ccc(O)c2ccccc12)c1ccccc1 | 96.39% | 76.72 | 19.67%
4 | O=C1C(Sc2nc[nH]n2)=C/C(=N/S(=O)(=O)c2cccs2)c2ccccc21 | 93.16% | 73.41 | 19.75%
5 | O=C(O)C(Cc1ccccc1)N1C(=O)/C(=C\c2ccco2)SC1=S (stereo not drawn) | 90.21% | 68.92 | 21.29%
6 | O=C1/C(=C\C=C\c2ccco2)SC(=S)N1NS(=O)(=O)c1ccccc1 | 89.9% | 66.9 | 23.0%
7 | CN(C)c1ccc(/C=C2\SC(=O)N(CCC(=O)Nc3ccccc3)C2=O)cc1 | 92.22% | 62.76 | 29.45%
8 | CCCN1C(=O)/C(=C/c2ccc(-c3cccc(C(F)(F)F)c3)o2)NC1=S | 85.65% | 57.72 | 27.93%
9 | O=C1NC(=S)C(=C2CCCC2)S1 | 93.34% | 55.3 | 38.05%
10 | O=C(CCN1C(=O)/C(=C\C=C\c2ccco2)SC1=S)Nc1ccc(C(=O)O)c(O)c1 | 76.09% | 54.54 | 21.54%
11 | O=C1NC(=O)/C(=C\c2cccc(C(F)(F)F)c2)S1 | 94.16% | 51.57 | 42.59%
12 | CCN1C(=O)C2Cc3cc(OC)c(OC)cc3CN2C1=O (stereo not drawn) | 91.73% | 51.9 | 39.84%
13 | O=C(O)CC1NC(=S)N(Cc2ccccc2)C1=O (stereo not drawn) | 98.89% | 50.19 | 48.71%
14 | CC(C)CN1C(=O)/C(=C\c2ccc(-c3ccc(S(N)(=O)=O)cc3)o2)SC1=S | 105.9% | 47.35 | 58.51%
15 | CC(C)/N=c1\scc(-c2cccs2)n1/N=C/c1ccc(O)c(O)c1O | 101.7% | 124.8 | −23.1%
16 | Cc1cs/c(=N\C2CCCCC2)n1/N=C/c1ccc(O)c(O)c1O | 89.95% | 106.2 | −16.27%
17 | Cc1nn2c(S)nnc2nc1O | 102.7% | 168.5 | −65.83%
18 | CCN(CC)c1ccc2cc(C(N)=O)/c(=N\NC(=O)c3ccccc3)oc2c1 | 129.3% | 135.9 | −6.592%
19 | COc1ccc(C(=O)COC(=O)c2c3c(nc4ccccc24)CCN(C)C3)cc1 | 88.79% | 119.7 | −30.96%
20 | Cc1cc2nc(N3CCC(C)CC3)c3ccccc3n2n1 | 106.7% | 108.5 | −1.786%
21 | CC(C)(C)c1cc(Cc2ccc(O)c(O)c2)cc(C(C)(C)C)c1O | 96.57% | 108.1 | −11.56%
22 | Oc1c(C(c2cccs2)N2CCCCC2)ccc2cccnc12 (stereo not drawn) | 115.2% | 105.7 | 9.463%
23 | CC1(C)CC2CC(C)(CN2c2nc(N)c3c(N)nc4c(c3c2C#N)CC(=O)N4C2CCCC2)C1 (stereo not drawn) | 114.7% | 104 | 10.72%
24 | CCOc1ccc(S(=O)(=O)/N=C2/C=C(Sc3nc[nH]n3)C(=O)c3ccccc32)cc1 | 103.4% | 101.1 | 2.333%
25 | O=C1NC(=S)N/C1=C1/C(=O)Nc2ccccc21 | 112.9% | 98.82 | 14.04%
26 | Oc1ccc(/C=N/NC(=S)Nc2ccc(Cl)cc2Cl)c(O)c1O | 87.36% | 98.23 | −10.87%
27 | COc1cc(OC)c(C2=NOC(C(=O)Nc3cc(C)n(CC(=O)NCc4ccco4)n3)C2)cc1Cl (stereo not drawn) | 83.62% | 98.12 | −14.5%
28 | CCOC(=O)/C(C#N)=C\c1ccc(N2CCOCC2)cc1 | 78.1% | 96.6 | −18.5%
29 | Cc1ccc(C2=NC(=O)/C(=C/c3cc(O)c(O)c(Br)c3)S2)cc1 | 96.59% | 93.98 | 2.607%
30 | O=C1C(Sc2nc[nH]n2)=C/C(=N/S(=O)(=O)c2ccc(F)cc2)c2ccccc21 | 96.12% | 91.16 | 4.952%

From US20150315211A1, “SMALL MOLECULES FOR THE MODULATION OF MCL-1 AND METHODS OF MODULATING CELL DEATH, CELL DIVISION, CELL DIFFERENTIATION AND METHODS OF TREATING DISORDERS” (priority 2010, published 2015)
